Experiments:
PC3 tumors = experiment: In vivo combination therapy with everolimus in PC3-mice
Protocol: (b) Everolimus monotherapy: Mice received everolimus (5 mg/kg/day) on days 0, 2, and 4 of the therapy.

[1] = Morphological assessment / tolerability of treated PC3-mice; type: in vivo
Protocol: Selected mouse organs (kidney, pancreas and tumor) were dissected from the sacrificed animals and immediately frozen using liquid nitrogen. Frozen tissue samples were sectioned at 7 μm thickness using a cryostat maintained at −20 °C to −25 °C and mounted onto microscope glass slides, followed by staining with hematoxylin and eosin for microscopic examination using standard protocols (supplementary material).
Frozen tissue samples (kidney, pancreas and tumor) were sectioned at 7 µm thickness using a cryostat maintained at −20°C to −25°C and mounted onto microscope glass slides. Sections were air-dried at room temperature for 15 minutes and subsequently fixed in 4% paraformaldehyde for 10 minutes. After rinsing in phosphate-buffered saline, slides were stained with hematoxylin for 5 minutes, rinsed in running tap water and differentiated in 1% acid alcohol followed by bluing in ammonia water. Sections were then counterstained with eosin for 1 minute and briefly washed in 70% ethanol to remove excess stain. Slides were dehydrated through graded ethanol (70%, 95%, 100%) and mounted with a permanent mounting medium. Stained sections were examined using a light microscope.

Compound: CO[C@H]1C[C@@H]2CC[C@@H](C)[C@@](O)(O2)C(=O)C(=O)N2CCCC[C@H]2C(=O)O[C@H]([C@H](C)C[C@@H]2CC[C@@H](OCCO)[C@H](OC)C2)CC(=O)[C@H](C)/C=C(\C)[C@@H](O)[C@@H](OC)C(=O)[C@H](C)C[C@H](C)/C=C/C=C/C=C/1C [everolimus]
- Time tumor volume kept under 500 mm^3 (PC3 tumors; everolimus alone 5 mg/kg/day on days 0, 2, 4): 20 days
- Median survival (PC3 tumors; everolimus alone 5 mg/kg/day on days 0, 2, 4, p > 0.5): ~ 25 days
- Microscopic tissue examination, kidney ([1]; 5mg/kg (x3)): Vacuolar degeneration of some tubular epithelial cells. No other obvious lesions
- Microscopic tissue examination, pancreas ([1]; 5mg/kg (x3)): No obvious lesions.
- Tolerability (physical condition, weight fluctuations) ([1]; PC3-mice, three doses of everolimus): no observable side effects

Source: paper PMC12920379 (European Journal of Nuclear Medicine and Molecular Imaging, 2025)
